The values that follow come from publication PMC8698932 (2021).

Broadly, the ΔTm is the change in melting temperature against a reference sample.

The subject of assay [1] is GG1 (DNA, G4) GGGCGGGCGCGAGGGAGGGT
The assay can be described thus: CD melting, 261 nm. The settings on record: 5 mM KCl; 10 mM KH2PO4 pH 7; 2 µM DNA, 8 µM compound.

Assay [2] relates to DL40 (DNA, G4) GGTTTTGGCAGGGTTTTGGT
Briefly: CD melting, 291 nm. The settings on record: 5 mM KCl; 10 mM KH2PO4 pH 7; 2 µM DNA, 8 µM compound.

In assay [3] the test system is nmyc01 (DNA, i motif) ACCCCCTGCATCTGCATGCCCCCTCCCACCCCCT
The assay can be described thus: CD melting, 287 nm. Conditions: Na+ (0.2 M CH3COONa); acetate pH 5; 2 µM DNA, 8 µM compound.

In assay [4] the test system is nmyc01m (DNA, i motif) ACCCCCTGCATCTTTTTGCCCCCTCCCACCCCCT
Briefly: CD melting, 287 nm. The settings on record: Na+ (0.2 M CH3COONa); acetate pH 5; 2 µM DNA, 8 µM compound.

The test system of assay [5] is 22nt (DNA, i motif) CCCTAACCCTAACCCTAACCCT
Briefly: CD melting, 287 nm. The settings on record: Na+ (0.2 M CH3COONa); acetate pH 5; 2 µM DNA, 8 µM compound.

The subject of assay [6] is nmyc01 (DNA, i motif) ACCCCCTGCATCTGCATGCCCCCTCCCACCCCCT
Briefly: 1H NMR titration (imino protons). The settings on record: Na+ (sodium phosphate); pH 5.0, 25 °C; hairpin Watson-Crick signals disappear at R = 0.25.

Assay [7] concerns nmyc01m (DNA, i motif) ACCCCCTGCATCTTTTTGCCCCCTCCCACCCCCT
Briefly: 1H NMR titration (imino protons). Conditions: Na+ (sodium phosphate); pH 5.0, 25 °C; no change in imino resonances.

The subject of assay [8] is 22nt (DNA, i motif) CCCTAACCCTAACCCTAACCCT
Briefly: 1H NMR titration (imino protons). Conditions: Na+ (sodium phosphate); pH 5.0, 25 °C; only small insignificant imino changes.

The subject of assay [9] is GG1 (DNA, G4) GGGCGGGCGCGAGGGAGGGT
The assay can be described thus: fluorescence titration (alkaloid quenching). Conditions: 5 mM KCl; phosphate 10 mM pH 7; overall constant of the 1:5 DNA:ligand model, not per site; non-specific binding possible.

Assay [10] deals with DL40 (DNA, G4) GGTTTTGGCAGGGTTTTGGT
The assay can be described thus: fluorescence titration (alkaloid quenching). The settings on record: 5 mM KCl; phosphate 10 mM pH 7; overall constant of the 1:4 DNA:ligand model, not per site; non-specific binding possible.

In assay [11] the test system is nmyc01 (DNA, i motif) ACCCCCTGCATCTGCATGCCCCCTCCCACCCCCT
The assay can be described thus: fluorescence titration (alkaloid quenching). Conditions: 5 mM KCl; acetate 10 mM pH 5; overall constant of the 1:4 DNA:ligand model, not per site; non-specific binding possible.

The subject of assay [12] is nmyc01m (DNA, i motif) ACCCCCTGCATCTTTTTGCCCCCTCCCACCCCCT
The assay can be described thus: fluorescence titration (alkaloid quenching). The settings on record: 5 mM KCl; acetate 10 mM pH 5; overall constant of the 1:5 DNA:ligand model, not per site; non-specific binding possible.

Assay [13] has as its system 22nt (DNA, i motif) CCCTAACCCTAACCCTAACCCT
Briefly: fluorescence titration (alkaloid quenching). Conditions: 5 mM KCl; acetate 10 mM pH 5; overall constant of the 1:4 DNA:ligand model, not per site; non-specific binding possible.

The subject of assay [14] is DL40 (DNA, G4) GGTTTTGGCAGGGTTTTGGT
Briefly: 1H NMR titration (imino and aromatic protons). Conditions: 150 mM NaCl; sodium phosphate pH 6.8, 25 °C; new imino signals, single conformation at R ≥ 1.0.

In assay [15] the test system is ckit21T12T21 (DNA, G4) CGGGCGGGCGCTAGGGAGGGT
Briefly: 1H NMR titration (imino and aromatic protons). Conditions: 20 mM KCl; 5 mM KH2PO4 pH 6.9, 25 °C; stacks over external tetrads.

On to `COc1ccc2c(c1O)C[N+]1(C)CCc3cc4c(cc3C1C2)OCO4` (stereo not drawn), for which the ΔTm in [1] is 1.7 °C; in [2], 5.2 °C; in [3], −0.3 °C; in [4], −0.6 °C; in [5], 0.7 °C. Further, the binding entry is listed as “weak” in assay [6]; “no” in [7]; “no” in [8]; “yes” in assay [14]; “yes” in assay [15]. Besides, the “Log Ka” value is on record as 22.39 ± 0.03 in [9]; 18.46 ± 0.05 in assay [10]; 18.21 ± 0.17 in assay [11]; 22.61 ± 0.08 in assay [12]; 17.64 ± 0.12 in [13].
